Assay results from patent publication US20070105792A1, “Administration Of DNA Methylation Inhibitors For Treating Epigenetic Diseases” (priority 2005, published 2007).

Test: Chemical stability of decitabine in reconstituted and diluted aqueous infusion fluid
Details: for pH: after preparation of the infusion; for Average degradation rate / Maximum degradation (% peak area): 0.1-1 mg/mL; for Average degradation rate: estimate assuming linearity
[1] = 0.1 mg/mL, 0.9% NaCl, Experiment 1: 2-8° C. one hour then room temperature, at 0 h
[2] = 0.1 mg/mL, 0.9% NaCl, Experiment 1: 2-8° C. one hour then room temperature, at 1 h
[3] = 0.1 mg/mL, 0.9% NaCl, Experiment 1: 2-8° C. one hour then room temperature, at 2 h
[4] = 0.1 mg/mL, 0.9% NaCl, Experiment 1: 2-8° C. one hour then room temperature, at 3 h
[5] = 0.1 mg/mL, 0.9% NaCl, Experiment 1: 2-8° C. one hour then room temperature, at 4 h
[6] = 0.1 mg/mL, 0.9% NaCl, Experiment 2: 2-8° C. ten hours then room temperature, at 0 h
[7] = 0.1 mg/mL, 0.9% NaCl, Experiment 2: 2-8° C. ten hours then room temperature, at 10 h
[8] = 0.1 mg/mL, 0.9% NaCl, Experiment 2: 2-8° C. ten hours then room temperature, at 11 h
[9] = 0.1 mg/mL, 0.9% NaCl, Experiment 2: 2-8° C. ten hours then room temperature, at 12 h
[10] = 0.1 mg/mL, 5% Dextrose, Experiment 1: 2-8° C. one hour then room temperature, at 0 h
[11] = 0.1 mg/mL, 5% Dextrose, Experiment 1: 2-8° C. one hour then room temperature, at 1 h
[12] = 0.1 mg/mL, 5% Dextrose, Experiment 1: 2-8° C. one hour then room temperature, at 2 h
[13] = 0.1 mg/mL, 5% Dextrose, Experiment 1: 2-8° C. one hour then room temperature, at 3 h
[14] = 0.1 mg/mL, 5% Dextrose, Experiment 1: 2-8° C. one hour then room temperature, at 4 h
[15] = 0.1 mg/mL, 5% Dextrose, Experiment 2: 2-8° C. ten hours then room temperature, at 0 h
[16] = 0.1 mg/mL, 5% Dextrose, Experiment 2: 2-8° C. ten hours then room temperature, at 10 h
[17] = 0.1 mg/mL, 5% Dextrose, Experiment 2: 2-8° C. ten hours then room temperature, at 11 h
[18] = 0.1 mg/mL, 5% Dextrose, Experiment 2: 2-8° C. ten hours then room temperature, at 12 h
[19] = 0.1 mg/mL, Lactated Ringer's, Experiment 1: 2-8° C. one hour then room temperature, at 0 h
[20] = 0.1 mg/mL, Lactated Ringer's, Experiment 1: 2-8° C. one hour then room temperature, at 1 h
[21] = 0.1 mg/mL, Lactated Ringer's, Experiment 1: 2-8° C. one hour then room temperature, at 2 h
[22] = 0.1 mg/mL, Lactated Ringer's, Experiment 1: 2-8° C. one hour then room temperature, at 3 h
[23] = 0.1 mg/mL, Lactated Ringer's, Experiment 1: 2-8° C. one hour then room temperature, at 4 h
[24] = 0.1 mg/mL, Lactated Ringer's, Experiment 2: 2-8° C. ten hours then room temperature, at 0 h
[25] = 0.1 mg/mL, Lactated Ringer's, Experiment 2: 2-8° C. ten hours then room temperature, at 10 h
[26] = 0.1 mg/mL, Lactated Ringer's, Experiment 2: 2-8° C. ten hours then room temperature, at 11 h
[27] = 0.1 mg/mL, Lactated Ringer's, Experiment 2: 2-8° C. ten hours then room temperature, at 12 h
[28] = about 1.0 mg/mL, 0.9% NaCl, Experiment 1: 2-8° C. one hour then room temperature, at 0 h
[29] = about 1.0 mg/mL, 0.9% NaCl, Experiment 1: 2-8° C. one hour then room temperature, at 1 h
[30] = about 1.0 mg/mL, 0.9% NaCl, Experiment 1: 2-8° C. one hour then room temperature, at 2 h
[31] = about 1.0 mg/mL, 0.9% NaCl, Experiment 1: 2-8° C. one hour then room temperature, at 3 h
[32] = about 1.0 mg/mL, 0.9% NaCl, Experiment 1: 2-8° C. one hour then room temperature, at 4 h
[33] = about 1.0 mg/mL, 0.9% NaCl, Experiment 2: 2-8° C. ten hours then room temperature, at 0 h
[34] = about 1.0 mg/mL, 0.9% NaCl, Experiment 2: 2-8° C. ten hours then room temperature, at 10 h
[35] = about 1.0 mg/mL, 0.9% NaCl, Experiment 2: 2-8° C. ten hours then room temperature, at 11 h
[36] = about 1.0 mg/mL, 0.9% NaCl, Experiment 2: 2-8° C. ten hours then room temperature, at 12 h
[37] = about 1.0 mg/mL, 5% Dextrose, Experiment 1: 2-8° C. one hour then room temperature, at 0 h
[38] = about 1.0 mg/mL, 5% Dextrose, Experiment 1: 2-8° C. one hour then room temperature, at 1 h
[39] = about 1.0 mg/mL, 5% Dextrose, Experiment 1: 2-8° C. one hour then room temperature, at 2 h
[40] = about 1.0 mg/mL, 5% Dextrose, Experiment 1: 2-8° C. one hour then room temperature, at 3 h
[41] = about 1.0 mg/mL, 5% Dextrose, Experiment 1: 2-8° C. one hour then room temperature, at 4 h
[42] = about 1.0 mg/mL, 5% Dextrose, Experiment 2: 2-8° C. ten hours then room temperature, at 0 h
[43] = about 1.0 mg/mL, 5% Dextrose, Experiment 2: 2-8° C. ten hours then room temperature, at 10 h
[44] = about 1.0 mg/mL, 5% Dextrose, Experiment 2: 2-8° C. ten hours then room temperature, at 11 h
[45] = about 1.0 mg/mL, 5% Dextrose, Experiment 2: 2-8° C. ten hours then room temperature, at 12 h
[46] = about 1.0 mg/mL, Lactated Ringer's, Experiment 1: 2-8° C. one hour then room temperature, at 0 h
[47] = about 1.0 mg/mL, Lactated Ringer's, Experiment 1: 2-8° C. one hour then room temperature, at 1 h
[48] = about 1.0 mg/mL, Lactated Ringer's, Experiment 1: 2-8° C. one hour then room temperature, at 2 h
[49] = about 1.0 mg/mL, Lactated Ringer's, Experiment 1: 2-8° C. one hour then room temperature, at 3 h
[50] = about 1.0 mg/mL, Lactated Ringer's, Experiment 1: 2-8° C. one hour then room temperature, at 4 h
[51] = about 1.0 mg/mL, Lactated Ringer's, Experiment 2: 2-8° C. ten hours then room temperature, at 0 h
[52] = about 1.0 mg/mL, Lactated Ringer's, Experiment 2: 2-8° C. ten hours then room temperature, at 10 h
[53] = about 1.0 mg/mL, Lactated Ringer's, Experiment 2: 2-8° C. ten hours then room temperature, at 11 h
[54] = about 1.0 mg/mL, Lactated Ringer's, Experiment 2: 2-8° C. ten hours then room temperature, at 12 h

Compound: Nc1ncn([C@H]2C[C@H](O)[C@@H](CO)O2)c(=O)n1 [Decitabine, 5-aza-2′-deoxycytidine]
- Decitabine Content (%) [1]: 97.5%
- Total Impurities (%) [1]: (2.5%)
- Decitabine Content (%) [2]: 96.9%
- Total Impurities (%) [2]: (3.2%)
- Decitabine Content (%) [3]: 95.7%
- Total Impurities (%) [3]: (4.3%)
- Decitabine Content (%) [4]: 94.1%
- Total Impurities (%) [4]: (6.0%)
- Decitabine Content (%) [5]: 92.5%
- Total Impurities (%) [5]: (7.7%)
- Decitabine Content (%) [6]: 97.8%
- Total Impurities (%) [6]: (2.2%)
- Decitabine Content (%) [7]: 93.4%
- Total Impurities (%) [7]: (6.7%)
- Decitabine Content (%) [8]: 92.3%
- Total Impurities (%) [8]: (7.7%)
- Decitabine Content (%) [9]: 90.8%
- Total Impurities (%) [9]: (9.2%)
- pH (0.1 mg/mL, 0.9% NaCl): 6.7
- Decitabine Content (%) [10]: 97.4%
- Total Impurities (%) [10]: (2.6%)
- Decitabine Content (%) [11]: 97.2%
- Total Impurities (%) [11]: (2.7%)
- Decitabine Content (%) [12]: 96.4%
- Total Impurities (%) [12]: (3.6%)
- Decitabine Content (%) [13]: 94.9%
- Total Impurities (%) [13]: (5.1%)
- Decitabine Content (%) [14]: 93.6%
- Total Impurities (%) [14]: (6.4%)
- Decitabine Content (%) [15]: 98.2%
- Total Impurities (%) [15]: (1.9%)
- Decitabine Content (%) [16]: 94.9%
- Total Impurities (%) [16]: (5.2%)
- Decitabine Content (%) [17]: 94.5%
- Total Impurities (%) [17]: (5.6%)
- Decitabine Content (%) [18]: 93.3%
- Total Impurities (%) [18]: (6.7%)
- pH (0.1 mg/mL, 5% Dextrose): 6.9
- Decitabine Content (%) [19]: 98.3%
- Total Impurities (%) [19]: (1.7%)
- Decitabine Content (%) [20]: 98.1%
- Total Impurities (%) [20]: (1.9%)
- Decitabine Content (%) [21]: 97.0%
- Total Impurities (%) [21]: (3.0%)
- Decitabine Content (%) [22]: 95.9%
- Total Impurities (%) [22]: (4.1%)
- Decitabine Content (%) [23]: 94.9%
- Total Impurities (%) [23]: (5.2%)
- Decitabine Content (%) [24]: 98.0%
- Total Impurities (%) [24]: (2.1%)
- Decitabine Content (%) [25]: 93.4%
- Total Impurities (%) [25]: (6.7%)
- Decitabine Content (%) [26]: 92.6%
- Total Impurities (%) [26]: (7.4%)
- Decitabine Content (%) [27]: 91.8%
- Total Impurities (%) [27]: (8.3%)
- pH (0.1 mg/mL, Lactated Ringer's): 6.7
- Average degradation rate (@ 4° C.): 0.40 %/hr
- Average degradation rate (@ Room Temperature): 2.44 %/hr
- Maximum degradation (% peak area) (S1 (6 hr stored @4° C. + 3 hr @ RT during infusion)): 9.72 % peak area
- Maximum degradation (% peak area) (S2 (7 hr stored @4° C. + 3 hr @ RT during infusion)): 10.12 % peak area
- Maximum degradation (% peak area) (S3 (7 hr stored @4° C. + 2 hr @ RT during infusion)): 7.68 % peak area
- Maximum degradation (% peak area) (S4 (8 hr stored @4° C. + 3 hr @ RT during infusion)): 10.52 % peak area
- Maximum degradation (% peak area) (S5 (8 hr stored @4° C. + 2 hr @ RT during infusion)): 8.08 % peak area
- Maximum degradation (% peak area) (S6 (9 hr stored @4° C. + 2 hr @ RT during infusion)): 8.48 % peak area
- Maximum degradation (% peak area) (S7 (10 hr stored @4° C. + 2 hr @ RT during infusion)): 8.88 % peak area
- pH deviation from neutral pH after preparation of the infusion (Table 1 and Table 2 solutions): ≤ 0.3 pH units
- Decitabine Content (%) [28]: 98.0%
- Total Impurities (%) [28]: (2.1%)
- Decitabine Content (%) [29]: 96.8%
- Total Impurities (%) [29]: (3.3%)
- Decitabine Content (%) [30]: 94.8%
- Total Impurities (%) [30]: (5.2%)
- Decitabine Content (%) [31]: 92.8%
- Total Impurities (%) [31]: (7.3%)
- Decitabine Content (%) [32]: 91.1%
- Total Impurities (%) [32]: (9.0%)
- Decitabine Content (%) [33]: 97.4%
- Total Impurities (%) [33]: (2.7%)
- Decitabine Content (%) [34]: 93.4%
- Total Impurities (%) [34]: (6.7%)
- Decitabine Content (%) [35]: 92.5%
- Total Impurities (%) [35]: (7.6%)
- Decitabine Content (%) [36]: 90.8%
- Total Impurities (%) [36]: (9.2%)
- pH (about 1.0 mg/mL, 0.9% NaCl): 6.7
- Decitabine Content (%) [37]: 98.0%
- Total Impurities (%) [37]: (2.0%)
- Decitabine Content (%) [38]: 97.0%
- Total Impurities (%) [38]: (3.1%)
- Decitabine Content (%) [39]: 95.6%
- Total Impurities (%) [39]: (4.4%)
- Decitabine Content (%) [40]: 93.7%
- Total Impurities (%) [40]: (6.4%)
- Decitabine Content (%) [41]: 91.9%
- Total Impurities (%) [41]: (8.1%)
- Decitabine Content (%) [42]: 97.7%
- Total Impurities (%) [42]: (2.4%)
- Decitabine Content (%) [43]: 94.5%
- Total Impurities (%) [43]: (5.5%)
- Decitabine Content (%) [44]: 93.9%
- Total Impurities (%) [44]: (6.1%)
- Decitabine Content (%) [45]: 93.0%
- Total Impurities (%) [45]: (7.1%)
- pH (about 1.0 mg/mL, 5% Dextrose): 7.1
- Decitabine Content (%) [46]: 98.1%
- Total Impurities (%) [46]: (2.0%)
- Decitabine Content (%) [47]: 97.3%
- Total Impurities (%) [47]: (2.7%)
- Decitabine Content (%) [48]: 96.2%
- Total Impurities (%) [48]: (3.8%)
- Decitabine Content (%) [49]: 95.1%
- Total Impurities (%) [49]: (4.9%)
- Decitabine Content (%) [50]: 93.7%
- Total Impurities (%) [50]: (6.4%)
- Decitabine Content (%) [51]: 98.0%
- Total Impurities (%) [51]: (2.1%)
- Decitabine Content (%) [52]: 94.1%
- Total Impurities (%) [52]: (5.9%)
- Decitabine Content (%) [53]: 93.3%
- Total Impurities (%) [53]: (6.8%)
- Decitabine Content (%) [54]: 91.8%
- Total Impurities (%) [54]: (8.2%)
- pH (about 1.0 mg/mL, Lactated Ringer's): 6.8
- Visual inspection of solutions (all reconstituted and diluted solutions): clear and colorless
- Drug content in the infusion solution during infusion (infusions prepared and stored as instructed): above 90%
